# Assay results taken from patent US20150158956A1, “MULTIVALENT ANTIVIRAL COMPOSITIONS, METHODS OF MAKING, AND USES THEREOF” (The Charles Stark Draper Laboratory, Inc., priority 2013, published 2015).
# Experiments:
# RSV strain A2 = assay: RSV plaque assay on Vero cell monolayers, sample pre-mixed with RSV strain A2 (Example 7); format: cell-based, respiratory syncytial virus; settings: in solution; Vero cells; 200 PFU RSV strain A2, 30 min at 37° C. pre-mix; read-out: concentration achieving a 50% reduction in RSV infectivity
# Protocol: The ability of liposomes to block RSV infection of Vero cells was examined. The blocking ability of liposomes was compared to purified sulfated octasaccharide, in solution, and a control, i.e., a liposome without sulfated octasaccharides. Liposomes were prepared using the method described in Example 3. […] Purified sulfated octasaccharide as described in Example 1, in solution or incorporated into liposomes, at the concentrations indicated were assessed using a plaque assay. Confluent Vero cell monolayers were formed by adding 1×10^6 Vero cells to wells of a 12-well plate then incubating the cells in 1 ml Dulbecco's Modified Eagle Medium (DMEM) with 4 mM glutamine and 10% fetal bovine serum as growth medium. The medium was removed from the cells. Sulfated octasaccharide, liposomes, or buffer at the concentrations indicated (see FIG. 5) were mixed with 200 PFU RSV strain A2 in 150 mM phosphate buffered saline for 30 min at 37° C. and the mixture was added to the monolayer surface. After one hour, the mixtures were removed, and the cells were washed and overlaid with 1 ml plaquing medium (DMEM with 4 mM glutamine, 2% FBS, and 0.4% agarose). After 5 to 7 days incubation at 37° C., the number of RSV plaques was counted. Liposome treated virus was compared to untreated virus, which represented 100% infectivity.
# [1] = tested on: respiratory syncytial virus (RSV); assay: RSV plaque (PFU) assay, sample added to Vero cells simultaneously with RSV (Example 6); format: cell-based
# Protocol: The ability of purified sulfated octasaccharide, in solution, to block respiratory syncytial virus (RSV) infection of Vero cells was examined. The blocking ability of purified sulfated octasaccharide was compared to heparin sodium.
# Purified sulfated octasaccharide was prepared according to the method of Example 1. Vero cells were seeded into 24-well plates and incubated at 37° C. for 24 hours to form monolayers. Samples were diluted to the desired concentration in sterile DMEM in a final volume of 225 μl. Full-length heparin sodium (the starting material) or purified HSocta was added to Vero cells simultaneously with RSV that was diluted to 300 PFU/mL then incubated at 37° C. for 30 min. Vero cells were washed with PBS and samples were incubated at 37° C. for 1 hour on Vero cells and then washed with PBS and incubated with DMEM containing 10% FBS and incubated at 37° C. for 72 h. Cells were fixed and stained with anti-glycoprotein F and anti-glycoprotein G antibodies (MAB858-2 and MAB8262F Millipore, Billerica, Mass.). Plaques were visualized with anti-mouse horseradish peroxidase-conjugated secondary antibody (BD Biosciences, San Jose, Calif.) and developed with peroxidase substrate kit (Vector Laboratories, Burlingame, Calif.). Viral plaques in the Vero monolayer were counted and the PFU/mL was determined.
substance,measurement,setting,value
GlcUA(2S)-GlcNS(6S)-Ido(2S)-GlcNS(6S)-Ido(2S)-GlcNS(6S)-Ido(2S)-GlcNS(6S) [purified sulfated octasaccharide],IC50,RSV strain A2,~500 µM
same,blocking PFU formation,"[1]; at 1 μg/ml or higher, RSV, Vero cells (results text says MDCK cells)",roughly 50%
same,"anti-RSV properties, ability to block infection of cells","[1]; in solution, results text says MDCK cells",strong anti-RSV properties
